In ChEMBL document CHEMBL6109059, “Synthesis and biofilm inhibitory activity of cyclic dinucleotide analogues prepared with macrocyclic ribose-phosphate skeleton” (2025) one finds inhibition, Ratio and Activity data, which are given here for ten compounds.

In experiment [1] the test system is Escherichia coli. Nature of the experiment: Inhibition of biofilm formation in Escherichia coli DH5alpha at 156 uM measured after 24 hrs by crystal violet staining based assay relative to control. Conditions: DH5-alpha. The format is functional.
Experiment [2] relates to Staphylococcus aureus. As to the kind of experiment: Inhibition of biofilm formation in Staphylococcus aureus NBRC13276 at 156 uM measured after 24 hrs by crystal violet staining based assay relative to control. It counts as functional.
The subject of experiment [3] is Pseudomonas aeruginosa. As to the kind of experiment: Inhibition of biofilm formation in Pseudomonas aeruginosa NBRC13275 at 156 uM measured after 6 hrs by crystal violet staining based assay relative to control. The format is functional.
The test system of experiment [4] is Escherichia coli. As to the kind of experiment: Potency index, ratio of compound effect to c-di-GMP effect on inhibition of biofilm formation in Escherichia coli DH5alpha. It counts as functional.
The subject of experiment [5] is Escherichia coli. Nature of the experiment: Antibacterial activity against Escherichia coli DH5alpha. It counts as functional, organism-based.
Experiment [6] deals with Staphylococcus aureus. Nature of the experiment: Antibacterial activity against Staphylococcus aureus NBRC13276. It counts as functional, organism-based.
The subject of experiment [7] is Pseudomonas aeruginosa. As to the kind of experiment: Antibacterial activity against Pseudomonas aeruginosa NBRC13275. It counts as functional, organism-based.

Activity calls are given as the source filed them. The rule behind the calls is not given here.

The term inhibition denotes the change of the read-out against control, counted positive when it falls. Low readings indicate little suppression, high ones strong suppression. Take `O=P1(O)OC[C@H]2O[C@@H](n3cc(-c4ccc(F)cc4)nn3)[C@H](O)[C@@H]2OP(=O)(O)OC[C@H]2O[C@@H](n3cc(-c4ccc(F)cc4)nn3)[C@H](O)[C@@H]2O1`: the inhibition at 156 µM was found to be 25.1% in the experiment on Escherichia coli [1], 4.86% in the experiment on Staphylococcus aureus [2] and 57.9% in the experiment on Pseudomonas aeruginosa [3]. Also, the Ratio with Escherichia coli [4] is given as 2. Besides, the result in the experiment with Escherichia coli [5], in the experiment on Staphylococcus aureus [6] and in the experiment on Pseudomonas aeruginosa [7] was inactive.
In the case of `O=P1(O)OC[C@H]2O[C@@H](n3cc(-c4cc(F)cc(F)c4)nn3)[C@H](O)[C@@H]2OP(=O)(O)OC[C@H]2O[C@@H](n3cc(-c4cc(F)cc(F)c4)nn3)[C@H](O)[C@@H]2O1`, the results for the inhibition at 156 µM in the experiment with Escherichia coli [1], with Staphylococcus aureus [2] and with Pseudomonas aeruginosa [3] were 45.8%, 8.24% and 47.3%, respectively. In addition, the Ratio with Escherichia coli [4] was determined as 2. The outcome in the experiment with Escherichia coli [5], in the experiment on Staphylococcus aureus [6] and in the experiment with Pseudomonas aeruginosa [7] was inactive.
For `O=P1(O)OC[C@H]2O[C@@H](n3cc(-c4cccc(F)c4)nn3)[C@H](O)[C@@H]2OP(=O)(O)OC[C@H]2O[C@@H](n3cc(-c4cccc(F)c4)nn3)[C@H](O)[C@@H]2O1`, the inhibition at 156 µM with Escherichia coli [1] amounted to 30.6%; in the experiment with Staphylococcus aureus [2] it was 7.15%; with Pseudomonas aeruginosa [3], 57.7%. The Ratio in the experiment on Escherichia coli [4] amounted to 2. Further, the outcome in the experiment on Escherichia coli [5], with Staphylococcus aureus [6] and in the experiment on Pseudomonas aeruginosa [7] was inactive.
As to `O=P1(O)OC[C@H]2O[C@@H](n3cc(-c4ccccc4F)nn3)[C@H](O)[C@@H]2OP(=O)(O)OC[C@H]2O[C@@H](n3cc(-c4ccccc4F)nn3)[C@H](O)[C@@H]2O1`, the inhibition at 156 µM with Escherichia coli [1] came out at 39.1%; in the experiment with Staphylococcus aureus [2] it was 16%; in the experiment with Pseudomonas aeruginosa [3] it was 59.4%. Further, the Ratio in the experiment on Escherichia coli [4] turned out to be 2. Also, the result in the experiment on Escherichia coli [5], in the experiment with Staphylococcus aureus [6] and in the experiment on Pseudomonas aeruginosa [7] was inactive.
Consider `O=P1(O)OC[C@H]2O[C@@H](n3cc(-c4ccc(F)c(F)c4)nn3)[C@H](O)[C@@H]2OP(=O)(O)OC[C@H]2O[C@@H](n3cc(-c4ccc(F)c(F)c4)nn3)[C@H](O)[C@@H]2O1`, for which the figures for the inhibition at 156 µM with Escherichia coli [1], with Staphylococcus aureus [2] and in the experiment on Pseudomonas aeruginosa [3] were 24.4%, 15.9% and 51.4%, respectively. In addition, the Ratio in the experiment on Escherichia coli [4] worked out at 2. The outcome in the experiment on Escherichia coli [5], with Staphylococcus aureus [6] and with Pseudomonas aeruginosa [7] was inactive.
For `O=P1(O)OC[C@H]2O[C@@H](n3cc(-c4ccc(Br)cc4)nn3)[C@H](O)[C@@H]2OP(=O)(O)OC[C@H]2O[C@@H](n3cc(-c4ccc(Br)cc4)nn3)[C@H](O)[C@@H]2O1`, the inhibition at 156 µM in the experiment with Escherichia coli [1] was found to be 35.1%; in the experiment with Staphylococcus aureus [2], 21.2%; in the experiment with Pseudomonas aeruginosa [3], 46%. For the same compound, the Ratio with Escherichia coli [4] was 2. The outcome in the experiment with Escherichia coli [5], in the experiment with Staphylococcus aureus [6] and in the experiment with Pseudomonas aeruginosa [7] was inactive.
As for `O=P1(O)OC[C@H]2O[C@@H](n3cc(-c4ccccc4)nn3)[C@H](O)[C@@H]2OP(=O)(O)OC[C@H]2O[C@@H](n3cc(-c4ccccc4)nn3)[C@H](O)[C@@H]2O1`, the inhibition at 156 µM with Escherichia coli [1] stood at 39.9%; in the experiment with Staphylococcus aureus [2], 24.1%; in the experiment with Pseudomonas aeruginosa [3], 44.2%. In addition, the Ratio with Escherichia coli [4] is 2. The result with Escherichia coli [5], with Staphylococcus aureus [6] and in the experiment with Pseudomonas aeruginosa [7] was inactive.
As for `Nc1nc2c(ncn2[C@@H]2O[C@@H]3COP(=O)(O)O[C@H]4[C@@H](O)[C@H](n5cnc6c(=O)[nH]c(N)nc65)O[C@@H]4COP(=O)(O)O[C@H]3[C@H]2O)c(=O)[nH]1`, the inhibition at 156 µM came to 12.5% in the experiment on Escherichia coli [1] and 52.9% in the experiment with Pseudomonas aeruginosa [3].
In the case of `COc1ccc(-c2cn([C@@H]3O[C@@H]4COP(=O)(O)O[C@H]5[C@@H](O)[C@H](n6cc(-c7ccc(OC)cc7)nn6)O[C@@H]5COP(=O)(O)O[C@H]4[C@H]3O)nn2)cc1`, the inhibition at 156 µM turned out to be 36.7% in the experiment on Escherichia coli [1], 19% with Staphylococcus aureus [2] and 53.3% in the experiment on Pseudomonas aeruginosa [3]. In the experiment with Escherichia coli [4], the Ratio came to 2. In addition, the outcome in the experiment with Escherichia coli [5], in the experiment with Staphylococcus aureus [6] and in the experiment on Pseudomonas aeruginosa [7] was inactive.
Take `O=P1(O)OC[C@H]2O[C@@H](n3cc(-c4ccncc4)nn3)[C@H](O)[C@@H]2OP(=O)(O)OC[C@H]2O[C@@H](n3cc(-c4ccncc4)nn3)[C@H](O)[C@@H]2O1`: the inhibition at 156 µM in the experiment on Escherichia coli [1] was 34.2%; in the experiment with Staphylococcus aureus [2] it was 39.6%; in the experiment with Pseudomonas aeruginosa [3] it was 21.9%. Further, the Ratio in the experiment on Escherichia coli [4] is given as 2. In addition, the result in the experiment on Escherichia coli [5], in the experiment with Staphylococcus aureus [6] and in the experiment with Pseudomonas aeruginosa [7] was inactive.
